We go through one compound from patent publication US20050113295A1, “Carboxamide and amino derivatives and methods of their use” (priority 2003, published 2005).

pEC50, pKi: −log10 of the molar value. Where a SMILES comes first, the peptide text is derived from it. [ ]: non-standard residue; d: D form. Phe(4-CONH2) = NC(=O)c1ccc(C[C@H](N)C(=O)O)cc1

In assay [1] the target is T1, cloned human μ opioid receptor (Homo sapiens, UniProt P35372).
T1 construct: expressed in transfected cells; host or cells: CHO cells
As to the kind of experiment: [3H]diprenorphine receptor binding, μ opioid receptor. Conditions: δ over μ. How it is done: (§1) The potencies of the compounds of the Examples were determined by testing the ability of a range of concentrations of each compound to inhibit the binding of the non-selective opioid antagonist, [^3H]diprenorphine, to the cloned human μ, κ, and δ opioid receptors, expressed in separate cell lines. IC50 values were obtained by nonlinear analysis of the data using GraphPad Prism version 3.00 for Windows (GraphPad Software, San Diego). Ki values were obtained by Cheng-Prusoff corrections of IC50 values.
(§2) The receptor binding method (DeHaven and DeHaven-Hudkins, 1998) was a modification of the method of Raynor et al. (1994). […] The filters were rinsed 4 times with 1 mL of cold 50 mM Tris HCl, pH 7.8 and radioactivity remaining on the filters determined by scintillation spectroscopy. Nonspecific binding was determined by the minimum values of the titration curves and was confirmed by separate assay wells containing 10 μM naloxone. Ki values were determined by Cheng-Prusoff corrections of IC50 values derived from nonlinear regression fits of 12 point titration curves using GraphPad Prism® version 3.00 for Windows (GraphPad Software, San Diego, Calif.).
(§3) To determine the equilibrium dissociation constant for the inhibitors (Ki), radioligand bound (cpm) in the presence of various concentrations of test compounds was measured. […]

In assay [2] the target is T2, cloned human κ opioid receptor (Homo sapiens, UniProt P41145).
T2 construct: expressed in transfected cells; host or cells: CHO cells
As to the kind of experiment: [3H]diprenorphine receptor binding, κ opioid receptor. Conditions: δ over κ. Here is the method:
as §1, §2, §3

The target in assay [3] is T3, cloned human δ opioid receptor (Homo sapiens, UniProt P41143).
T3 construct: expressed in transfected cells; host or cells: CHO cells
As to the kind of experiment: Receptor-mediated [35S]GTPγS binding, δ opioid receptor. The format is biochemical. Here is the method: The potency and efficacy of compounds at each of the receptors are assessed by modifications of the methods of Selley et al., 1997 and Traynor and Nahorski, 1995 using receptor-mediated [^35S]GTPγS binding in the same membrane preparations used to measure receptor binding. Assays are carried out in 96-well FlashPlates® (Perkin Elmer Life Sciences, Inc, Boston, Mass.). Membranes prepared from CHO cells expressing the appropriate receptor (50-100 μg of protein) are added to assay mixtures containing agonist with or without antagonists, […] [^35S]GTPγS (approx. 100,000 dpm), 3.0 μM GDP, 75 mM NaCl, 15 mM MgCl2, 1.0 mM ethylene glycol-bis(β-aminoethyl ether)-N,N,N′,N′-tetracetic acid, 1.1 mM dithiothreitol, 10 μg/mL leupeptin, 10 μg/mL pepstatin A, 200 μg/mL bacitracin, and 0.5 μg/mL aprotinin in 50 mM Tris-HCl buffer, pH 7.8. After incubation at room temperature for one hour, the plates are sealed, centrifuged at 800×g in a swinging bucket rotor for 5 minutes and bound radioactivity determined with a TopCount microplate scintillation counter (Packard Instrument Co., Meriden, Conn.).
EC50 values for agonists are determined from nonlinear regression fits of 8- or 12-point titration curves to the 4-parameter equation for a sigmoidal dose-response with a slope factor of 1.0 using GraphPad Prism version 3.00 for Windows (GraphPad Software, San Diego, Calif.).
Background: GTPγS resists hydrolysis and so accumulates on activated G proteins.

Assay [4] addresses T3, cloned human δ opioid receptor. As to the kind of experiment: [3H]diprenorphine receptor binding, δ opioid receptor. How it is done: as §1, §2, §3

T3 sequence (P41143 whole entry): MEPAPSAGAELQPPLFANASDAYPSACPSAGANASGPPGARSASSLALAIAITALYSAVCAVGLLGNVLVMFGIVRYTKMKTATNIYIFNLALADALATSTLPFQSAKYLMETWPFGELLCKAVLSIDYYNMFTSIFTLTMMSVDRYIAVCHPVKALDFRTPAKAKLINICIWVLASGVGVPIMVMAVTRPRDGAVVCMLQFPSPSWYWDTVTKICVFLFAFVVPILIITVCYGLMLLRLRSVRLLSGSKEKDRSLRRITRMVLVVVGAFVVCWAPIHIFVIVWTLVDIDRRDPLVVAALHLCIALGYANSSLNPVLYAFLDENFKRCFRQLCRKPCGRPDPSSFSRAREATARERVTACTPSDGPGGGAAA
T2 sequence (P41145 whole entry): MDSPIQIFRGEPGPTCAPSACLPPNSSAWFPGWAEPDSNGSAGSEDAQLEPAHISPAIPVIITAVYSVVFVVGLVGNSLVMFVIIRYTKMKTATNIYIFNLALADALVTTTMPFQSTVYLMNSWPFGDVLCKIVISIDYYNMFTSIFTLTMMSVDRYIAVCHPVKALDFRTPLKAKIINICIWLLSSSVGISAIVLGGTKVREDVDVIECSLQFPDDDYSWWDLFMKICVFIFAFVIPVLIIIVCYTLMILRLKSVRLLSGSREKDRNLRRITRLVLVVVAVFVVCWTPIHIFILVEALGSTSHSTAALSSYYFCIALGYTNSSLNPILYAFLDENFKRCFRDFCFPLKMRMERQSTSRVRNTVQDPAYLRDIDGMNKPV
T1 sequence (P35372 whole entry): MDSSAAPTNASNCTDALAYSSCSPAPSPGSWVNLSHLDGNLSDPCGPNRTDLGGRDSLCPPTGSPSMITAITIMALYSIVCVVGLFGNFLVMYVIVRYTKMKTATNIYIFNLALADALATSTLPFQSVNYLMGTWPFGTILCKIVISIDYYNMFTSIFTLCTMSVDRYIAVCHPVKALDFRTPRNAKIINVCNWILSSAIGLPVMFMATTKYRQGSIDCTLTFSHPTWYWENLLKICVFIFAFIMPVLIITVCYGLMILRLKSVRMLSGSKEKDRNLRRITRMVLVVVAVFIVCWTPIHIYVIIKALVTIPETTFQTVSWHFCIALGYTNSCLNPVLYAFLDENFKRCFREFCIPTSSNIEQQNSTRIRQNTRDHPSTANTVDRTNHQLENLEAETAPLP

Regarding `CC(C)C[C@H](NC(=O)[C@H](Cc1ccccc1)NC(=O)CNC(=O)CNC(=O)[C@@H](N)Cc1ccc(C(N)=O)cc1)C(N)=O` [Example 1, H-Cpa-Gly-Gly-Phe-Leu-NH2] (H-[Phe(4-CONH2)]GGFL-NH2), the “selectivity versus the μ opioid receptor” value in assay [1] is recorded as “greater than 10 fold”. For the same compound, the “selectivity versus the κ opioid receptor” value in assay [2] was “greater than 10 fold”. In assay [3], the pEC50 (in general, the EC50 on a negative log10 scale, so that one unit is a factor of ten) is 7.13. Also, the negative logarithm of the Ki (pKi) (in general, −log10 of the Ki, conventionally taken in molar units) in assay [4] was 8.15.
